The values that follow come from patent publication US20070207144A1, “Ubiquitin/proteasome inhibitors for the treatment of spinal muscular atrophy” (priority 2006, published 2007).

In assay [1] the test system is fibroblasts isolated from an SMA patient. The experiment in a line: SMN protein and gem formation in SMA patient fibroblasts. In kind it is cell-based, human. The following applies: compared with the control DMSO. An excerpt:
The invention is further related to the appreciation that the assays described herein can be efficiently used as the primary assay for selecting a candidate for the treatment of SMA. Thus, the invention relates to a method for selecting a candidate for the treatment of SM-A comprising (a) contacting the candidate with a fibroblast cell culture derived from an SMA patient under conditions and for a period of time sufficient for SMN protein expression and gem formation; (b) determining the formation of gems of SMN protein; and (c) selecting the candidate. The formation of gems can be determined by establishing the percentage of fibroblasts with gems in the cell culture. In other embodiments, the number of gems or concentration of gems in the culture can be determined.
Cell lines are derived from SMA patients. Such cells are termed “SMA cells” herein. The cells are isolated from a variety of sources and tissues. For example, the cells can be isolated from a blood sample or from a biopsy. The cell can be a stem cell, a fibroblast, a neuronal cell or a lymphoid cell. The cells can be propagated in culture according to cell type and origin of the cells. The requisite growth factors can be provided in the media. For example, the media can be supplemented with fetal calf serum, a cocktail of purified factors, or an individual growth factor. The cells can be propagated without being immortalized. Alternatively, the cells can immortalized using a virus or a plasmid bearing an oncogene, or a transforming viral protein, e.g., papilloma E6 or E7 protein. The source of the fibroblasts for cell culture can be isolated from a patient with SMA or derived from such an isolation. In one embodiment, the cells are a clonal cell culture derived from an SMA patient.
Procedures for isolating and maintaining cells lines are well known in the art and can be found in suitable laboratory manuals. The cells can be grown in sufficient amount to screen an array of test compounds. Alternatively, cells can be used to assess the effectiveness of individual compounds as SMA treatments. […]

The test system of a further assay is proteasome. The following applies: Fenteany et al., Science 1995; cited from earlier work.
In a further assay the test system is several cell types. The conditions noted are these: Fenteany et al., PNAS 1994; cited from earlier work.

In the case of `CC(=O)N[C@@H](CSC(=O)[C@]1([C@@H](O)C(C)C)NC(=O)[C@H](C)[C@@H]1O)C(=O)O` [Lactacystin, lactacystin], the “SMN & Gems in patient fibroblasts (pictures)” value in assay [1] is listed as “induced”. Moreover, the “proteolytic activity of the proteasome complex” value in the assay with proteasome is “specifically inhibits”. For the same compound, the “proliferation of several cell types” value in the assay on several cell types is “capable of inhibiting”. `CC(C)[C@H](O)[C@@]12NC(=O)[C@H](CCCl)[C@]1(C)OC2=O` [Antiprotealide, antiprotealide]: the “SMN & Gems in patient fibroblasts (pictures)” value in assay [1] is “induced”. On the same count and under the same terms, to `CC(C)C[C@H](NC(=O)[C@H](Cc1ccccc1)NC(=O)c1cnccn1)B(O)O` [Velcade, bortezomib] belongs “induced”.
